For orientation: IC50 means the concentration that inhibits the measured activity by half.

For assay [1], the system named is PC-3, HT-29, MCF-7 and HepG2 tumour cell lines. Put plainly: MTT and CV assays, panel of four tumour cell lines. Conditions: applied concentrations up to 100 µM, 48 h. Type of assay: cell-based, human. Here is the method:
The in vitro anticancer activity of ligand precursors, HL1–HL3 and its organotin(IV) compounds was tested in a panel of four tumour cell lines: PC3 (prostate cancer cells), HT-29 (colon cancer cells), MCF-7 (breast cancer cells), and HepG2 (hepatic cancer cells), as well as on normal NIH3T3 cells (mouse embryonic fibroblast) using MTT and CV assays after 48 h of incubation.
The cell proliferations of ligand precursors and organotin(IV) compounds were evaluated with the aid of MTT (3-(4,5-dimethylthiazol-2-yl)-2,5-12 diphenyltetrazolium bromide) and CV (crystal violet) assays toward prostate (PC-3), colon (HT-29), breast (MCF-7) and hepatic (HepG2) cancer cell lines, and normal mouse embryonic fibroblast cells (NIH 3T3). The cells were cultivated in T75 flasks containing 10 mL of complete medium and kept at 37 °C and 5% CO2 […]. The nutrient medium was RPMI-1640 (PAA Laboratories) supplemented with 10% foetal bovine serum, L-glutamine, and penicillin/streptomycin (Sigma). Afterward, 5.000 cells of PC-3 and MCF-7 and 1.500 cells of HT-29 and HepG2 were transferred into 96 well-plates and used for MTT and CV assays. For microscopy investigations as well as FACS measurements (except for ROS/RNS measurements), MCF-7 cells were seeded overnight in 6-well plates (150,000 cells/well) in […] of complete medium. […] BD FACS Aria III was used for flow cytometry experiments and results were analysed using BD FACSDiva software (BD Biosciences, Heidelberg, Germany) and Cyflogic (V 1.2.1, CyFlo Ltd., Turku, Finland). A fluorescence microscope Invitrogen EVOS FL 2 Auto 2 Cell Imaging System was used for visualization of the cells as well as for detection of fluorescence in the cells.
Ligands HL1‒HL3, organotin(IV) compounds, and cisplatin were investigated in 9 different concentrations (100, 50, 10, 5, 1, 0.5, 0.1, 0.05, 0.01 μM). […] The treated cells were incubated for 48 h at 37 °C under 5% CO2 and the viability of the cells was determined using MTT and CV assays according to the literature procedure. […]
(Formazan colour is commonly taken as a measure of viable cells.)

In assay [2] the test system is MCF-7 (breast cancer) cells. Put plainly: MTT assay, MCF-7 cells. Particulars: for IC50: read-out: IC50 (mean ± SD), MCF-7, MTT. The class given is cell-based, human. As to the method:
(§1) The cell proliferations of ligand precursors and organotin(IV) compounds were evaluated with the aid of MTT (3-(4,5-dimethylthiazol-2-yl)-2,5-12 diphenyltetrazolium bromide) and CV (crystal violet) assays toward prostate (PC-3), colon (HT-29), breast (MCF-7) and hepatic (HepG2) cancer cell lines, and normal mouse embryonic fibroblast cells (NIH 3T3). The cells were cultivated in T75 flasks containing 10 mL of complete medium and kept at 37 °C and 5% CO2 […]. The nutrient medium was RPMI-1640 (PAA Laboratories) supplemented with 10% foetal bovine serum, L-glutamine, and penicillin/streptomycin (Sigma). Afterward, 5.000 cells of PC-3 and MCF-7 and 1.500 cells of HT-29 and HepG2 were transferred into 96 well-plates and used for MTT and CV assays. For microscopy investigations as well as FACS measurements (except for ROS/RNS measurements), MCF-7 cells were seeded overnight in 6-well plates (150,000 cells/well) in […] of complete medium. […] In all assays, control cells were untreated MCF-7 cells incubated for the same time period as treated cells and treated with appropriate reagents in various assays. BD FACS Aria III was used for flow cytometry experiments and results were analysed using BD FACSDiva software (BD Biosciences, Heidelberg, Germany) and Cyflogic (V 1.2.1, CyFlo Ltd., Turku, Finland). A fluorescence microscope Invitrogen EVOS FL 2 Auto 2 Cell Imaging System was used for visualization of the cells as well as for detection of fluorescence in the cells.
(§2) Ligands HL1‒HL3, organotin(IV) compounds, and cisplatin were investigated in 9 different concentrations (100, 50, 10, 5, 1, 0.5, 0.1, 0.05, 0.01 μM). Using the complete medium, each stock solution of the test compounds (20 mM in DMSO) was diluted to obtain the working solution. The final concentration of DMSO never overstepped 0.5%, which is non-toxic to the cells. Three technical replicates were performed for each concentration. The treated cells were incubated for 48 h at 37 °C under 5% CO2 and the viability of the cells was determined using MTT and CV assays according to the literature procedure. The IC50 values, defined as 50% inhibitory concentration, were calculated with a four-parameter logistic function and presented in a mean. All experiments were performed in triplicate.

The subject of assay [3] is HT-29 (human colorectal adenocarcinoma) cells. Put plainly: CV (crystal violet) assay, HT-29 cells. Conditions: read-out: IC50 (mean ± SD), HT-29, CV. Type of assay: cell-based. Here is the method:
as §1, §2

Assay [4] concerns HepG2 (hepatocellular cancer) cells. Put plainly: CV (crystal violet) assay, HepG2 cells. Type of assay: cell-based, human. Conditions: read-out: IC50 (mean ± SD), HepG2, CV. Here is the method: as §1, §2
Assay [5] relates to NIH3T3 (normal mouse embryonic fibroblast) cells. Put plainly: MTT assay, NIH3T3 cells. The class given is cell-based. Conditions: read-out: IC50 (mean ± SD), NIH3T3, MTT. Here is the method:
as §1, §2

Assay [6] relates to MCF-7 (breast cancer) cells. Put plainly: CV (crystal violet) assay, MCF-7 cells. The class given is cell-based, human. Particulars: read-out: IC50 (mean ± SD), MCF-7, CV. Here is the method: as §1, §2
Assay [7] concerns HepG2 (hepatocellular cancer) cells. Put plainly: MTT assay, HepG2 cells. The class given is cell-based, human. Particulars: read-out: IC50 (mean ± SD), HepG2, MTT. Here is the method:
as §1, §2

For assay [8], the system named is PC-3 (human prostate cancer) cells. Put plainly: MTT assay, PC-3 cells. Particulars: read-out: IC50 (mean ± SD), PC-3, MTT. Type of assay: cell-based. As to the method:
as §1, §2

In assay [9] the test system is NIH3T3 (normal mouse embryonic fibroblast) cells. Put plainly: CV (crystal violet) assay, NIH3T3 cells. Type of assay: cell-based. Conditions: read-out: IC50 (mean ± SD), NIH3T3, CV. As to the method:
as §1, §2

In assay [10] the test system is PC-3 (human prostate cancer) cells. As to the kind of experiment: CV (crystal violet) assay, PC-3 cells. Type of assay: cell-based. Particulars: read-out: IC50 (mean ± SD), PC-3, CV. Here is the method: as §1, §2
Assay [11] deals with HT-29 (human colorectal adenocarcinoma) cells. Put plainly: MTT assay, HT-29 cells. Type of assay: cell-based. Conditions: read-out: IC50 (mean ± SD), HT-29, MTT. As to the method: as §1, §2
Where [12] appears, read: Homo sapiens, MCF7, MTT assay, 48 h incubation.
Where [13] appears, read: Homo sapiens, HT-29, CV assay, 48 h incubation.
The mark [14] stands for this setting: Homo sapiens, HepG2, CV assay, 48 h incubation.
[15] abbreviates: Mus musculus, NIH3T3, MTT assay, 48 h incubation, normal cells.
[16] abbreviates: Homo sapiens, MCF7, CV assay, 48 h incubation.
Setting [17] is: Homo sapiens, HepG2, MTT assay, 48 h incubation.
Where [18] appears, read: Homo sapiens, PC-3, MTT assay, 48 h incubation.
Setting [19] is: Mus musculus, NIH3T3, CV assay, 48 h incubation, normal cells.
The mark [20] stands for this setting: Homo sapiens, PC-3, CV assay, 48 h incubation.
[21] abbreviates: Homo sapiens, HT-29, MTT assay, 48 h incubation.
Where [22] appears, read: MTT assay, 48 h incubation, normal cells.
The mark [23] stands for this setting: CV assay, 48 h incubation, normal cells.

A value given as a limit tells only on which side of the number the result lay.

Turning to `O=C(O)CCc1nc(-c2ccccc2)c(-c2ccccc2)o1` [HL1, 3-(4,5-diphenyloxazol-2-yl)propanoic acid, reference compound], the “influence on cell proliferation” value in assay [1] was “did not affect cell proliferation in any cancer cell line tested”. The concentration for half-maximal inhibition (IC50) in assay [2] (Homo sapiens, MCF7, 48 h) is more than 100000 nM; in assay [3] (Homo sapiens, HT-29, 48 h), more than 100000 nM; in [4] (Homo sapiens, HepG2, 48 h) it was more than 100000 nM; in [5] (Mus musculus, NIH3T3, 48 h), more than 100000 nM; in assay [6] (Homo sapiens, MCF7, 48 h), more than 100000 nM; in assay [7] (Homo sapiens, HepG2, 48 h), more than 100000 nM. Moreover, the IC50 in assay [8] (Homo sapiens, PC-3, 48 h) is more than 100000 nM; in assay [9] (Mus musculus, NIH3T3, 48 h), more than 100000 nM; in assay [10] (Homo sapiens, PC-3, 48 h), more than 100000 nM; in assay [11] (Homo sapiens, HT-29, 48 h), more than 100000 nM.

As to `COc1ccc(-c2nc(CCC(=O)O)oc2-c2ccc(OC)cc2)cc1` [HL2, 3-(4,5-bis(4-Methoxylphenyl)oxazol-2-yl)propanoic acid], the “influence on cell proliferation” value in assay [1] is listed as “did not affect cell proliferation in any cancer cell line tested”. The half-inhibitory concentration (IC50) in assay [2] (setting [12]), in [3] (setting [13]), in [4] (setting [14]), in assay [5] (setting [15]), in assay [6] (setting [16]) and in assay [7] (setting [17]) was more than 100000 nM in each case. The IC50 in [8] (setting [18]), in [9] (setting [19]), in assay [10] (setting [20]) and in assay [11] (setting [21]) was more than 100000 nM throughout.

Regarding `O=C(O)CCN1C(=O)NC(c2ccccc2)(c2ccccc2)C1=O` [HL3, 3-(2,5-Dioxo-4,4-diphenylimidazolidin-1-yl)propanoic acid], the “influence on cell proliferation” value in [1] is on record as “did not affect cell proliferation in any cancer cell line tested”. Further, the IC50 in [2] (setting [12]), in [3] (setting [13]), in assay [4] (setting [14]), in assay [5] (setting [15]), in [6] (setting [16]) and in assay [7] (setting [17]) was more than 100000 nM in each case. Besides, the concentration for half-maximal inhibition (IC50) in assay [8] (setting [18]), in [9] (setting [19]), in [10] (setting [20]) and in assay [11] (setting [21]) was more than 100000 nM in each case.

In the case of `O=C(CCN1C(=O)NC(c2ccccc2)(c2ccccc2)C1=O)[O][Sn]([c]1ccccc1)([c]1ccccc1)[c]1ccccc1` [Ph3SnL3, (3-(2,5-Dioxo-4,4-diphenylimidazolidin-1-yl)propanoato)triphenyltin(IV)], the half-inhibitory concentration (IC50) in assay [2] (MTT assay, 48 h incubation) was 131 ± 17 nM; in assay [3] (CV assay, 48 h incubation), 471 ± 48 nM; in [4] (CV assay, 48 h incubation), 255 ± 85 nM; in [5] (setting [22]) it was 1820 ± 990 nM; in assay [6] (CV assay, 48 h incubation) it was 219 ± 16 nM; in assay [7] (MTT assay, 48 h incubation), 100 ± 30 nM. Further, the IC50 in assay [8] (MTT assay, 48 h incubation) came out at 211 ± 42 nM; in assay [9] (setting [23]) it was 2090 ± 1030 nM; in [10] (CV assay, 48 h incubation) it was 458 ± 29 nM; in assay [11] (MTT assay, 48 h incubation) it was 218 ± 15 nM. Further, the “fold higher activity compared to cisplatin against MCF-7” value in assay [2] (Table 1 IC50 values, 48 h) is “up to 120 fold”.

Consider “(3-(4,5-bis(4-Methoxylphenyl)oxazol-2-yl)propanoato)triphenyltin(IV) [Ph3SnL2]”, for which the half-maximal inhibitory concentration (IC50) in [2] (MTT assay, 48 h incubation) is 309 ± 59 nM; in assay [3] (CV assay, 48 h incubation), 727 ± 18 nM; in assay [4] (CV assay, 48 h incubation), 628 ± 165 nM; in [5] (setting [22]) it was 1990 ± 1120 nM; in assay [6] (CV assay, 48 h incubation), 543 ± 26 nM; in [7] (MTT assay, 48 h incubation), 223 ± 84 nM. The IC50 in assay [8] (MTT assay, 48 h incubation) came out at 575 ± 43 nM; in assay [9] (setting [23]) it was 2610 ± 520 nM; in assay [10] (CV assay, 48 h incubation), 785 ± 18 nM; in assay [11] (MTT assay, 48 h incubation), 453 ± 63 nM.

Source of the values: PMC8198038, “In Vitro Evaluation of Antiproliferative Properties of Novel Organotin(IV) Carboxylate Compounds with Propanoic Acid Derivatives on a Panel of Human Cancer Cell Lines” (Molecules, 2021).
